Assay results reported in patent US12378261B2, “One-step, fast, 18F-19F isotopic exchange radiolabeling of difluoro-dioxaborinins and use of such compounds in treatment” (CORNELL UNIVERSITY, priority 2018, dated 2025).
One block for each compound: values may come before it.

Experiments:
[1] = Solubility in water (50 M H2O); format: physicochemical; conditions: 50 M H2O (90% H2O/10% DMSO)
Procedure: (§1) Some difluoro-dioxaborinins are insoluble in water; therefore, solvolytic studies on these compounds were determined in 10% H2O/90% DMSO (5.55 M H2O, deionized). To relate the effect of water concentration to solvolysis, solvolytic studies on all water-soluble difluoro-dioxaborinins (DK-1, DK-2, DK-3, DK-6 and DK-15) were performed twice: once in 10% H2O/90% DMSO (5.55 M H2O) (FIG. 2A), and again in 90% H2O/10% DMSO (50 M H2O) (FIG. 2B). Studies performed in 50 M H2O reflect physiologically appropriate conditions, and allow comparison to literature aryl/alkyl trifluoroborate and dipyrromethene solvolytic stability measurements.^11, 14 Characterization in solutions with reduced water content, 5.55 M H2O, allows comparison of solvolytic rate constants to those of less-soluble difluoro-dioxaborinins. Difluorodioxaborinins solvolysis is not observed in pure (100%) DMSO.
Solvolysis is promoted by extending difluorodioxaborinin π-conjugation using moderately electron poor or electron-neutral substituents (DK-13 and DK-14). To evaluate the effect of extending the difluoro-dioxaborinin 4,5,6 π-system on solvolysis, compounds that bear extended π-conjugation through the difluoro-dioxaborinin moiety (positions 4, 5, and 6) were synthesized. ^19F NMR solvolytic measurements were performed only in 5.55 M H2O, as DK-13 and DK-14 are insoluble in 50 M H2O.

[2] = Optical properties (absorbance, fluorescence emission, quantum yield); format: physicochemical; conditions: for Quantum yield: Methanol
[3] = 19F NMR solvolytic stability of difluoro-dioxaborinins in water/DMSO; format: physicochemical; conditions: for Fold increase in stability (90% → 10% H2O): 10% water/DMSO vs 90% water/DMSO; for times more resistant to solvolysis than DK-1: 50 M H2O
Procedure: Radioactive TLC and […]/^19F NMR studies were used to determine the solvolytic stability of difluoro-dioxaborinins.
as §1
The coefficient of determination (R^2) in all ^19F NMR solvolysis data closely follows single, 2 parameter exponential decay regression (f=a*exp(−k*x), R2 >0.99 in 88% of experiments).

sentinel nodes = conditions: non-targeted fluorescent contrasts, literature; cited from earlier work
HeLa = assay: Inhibition of cell proliferation (IC50, MTS); format: cell-based
Procedure: (§2) As shown in FIGS. 11A-11E, cell viability as a function of Curcumin-BF2 concentration was evaluated for each of the cell lines in Example 5, showing the compounds of the present technology are effective in inhibiting cancer cell proliferation.

HCT116 = assay: Inhibition of cell proliferation (IC50, MTS); format: cell-based
Procedure: as §2

A549 = assay: Inhibition of cell proliferation (IC50, MTS); format: cell-based
Procedure: as §2

MCF-7 = assay: Inhibition of cell proliferation (IC50, MTS); format: cell-based
Procedure: as §2

MDA-MB-231 = assay: Inhibition of cell proliferation (IC50, MTS); format: cell-based
Procedure: as §2

[4] = system: sentinel (popliteal) lymph node; assay: Sentinel lymph node fluorescence imaging (IVIS) and histology in mouse; format: in vivo
Procedure: FIGS. 3A-F: Sentinel lymph node imaging using [^18F]-6F-Cur-BF2 according to the working examples. […] Distal lymph nodes (lumbar, iliac lymph nodes^30) are not observed. […] A 200 μCi dose of [^18F]-6F-Cur-BF2 and Magnevist (MRI contrast agent) were injected into the right rear paw of […]. The injection site (bottom arrow) and sentinel lymph node (popliteal, upper arrows) are visible at 5 min. FIGS. 3D-3F show popliteal (sentinel) lymph node imaging 2 hours post injection into the back paw with a Pre-Clinical IVIS. Optical/Computed Tomography In Vivo Imaging System (Excitation filter centered at 430 nm and emission filter centered at 520 nm. Exposure time=1 s). […] White arrows in FIGS. 3D-3F indicate the lymph nodes.
FIG. 5 provides the histology of the collected lymph node from the mouse in FIG. 4A. The mouse lymph node was collected at 2 hours post injection into the right, rear footpad. The collected lymph node was frozen with OCT Gel and cut with a thickness of […]. The slice was, imaged with fluorescence microscope at the channel of 6F-Cur-BF2.
Applicant attempted sentinel lymph node imaging with [^18F]-6FCur-BF2 by fluorescence with 430 nm excitation and 520 nm emission filters. […] The collected lymph node is confirmed in histology.

Structure (SMILES): CCN(CC)c1ccc(C(=C2C=CC(=[N+](CC)CC)C=C2)c2cc(S(=O)(=O)[O-])ccc2S(=O)(=O)[O-])cc1.[Na+] [lymphazurin, isosulfan blue]
behaviour in sentinel node mapping (sentinel nodes): travel through sentinel nodes to delineate multiple non-sentinel nodes

Structure (SMILES): COc1cc(/C=C/C(=O)CC(=O)/C=C/c2ccc(O)c(OC)c2)ccc1O [Curcumin, reference compound]
IC50 (HeLa; Homo sapiens, 24 h): 16 ± 3 µM | IC50 (HeLa; Homo sapiens, 48 h): 19 ± 6 µM | IC50 (HCT116; Homo sapiens, HCT-116, HCT116, 24 h): 27 ± 5 µM | IC50 (HCT116; Homo sapiens, HCT-116, HCT116, 48 h): 16 ± 2 µM | IC50 (A549; Homo sapiens, A549, 24 h): 50 ± 4 µM | IC50 (A549; Homo sapiens, A549, 48 h): 25 ± 1 µM | IC50 (MCF-7; Homo sapiens, MCF7, MCF-7, 24 h): 27 ± 8 µM | IC50 (MCF-7; Homo sapiens, MCF7, MCF-7, 48 h): 35 ± 3 µM | IC50 (MDA-MB-231; Homo sapiens, MDA-MB-231, 24 h): 32 ± 13 µM | IC50 (MDA-MB-231; Homo sapiens, MDA-MB-231, 48 h): 26 ± 6 µM | Abs [2]: 434 nm | Em [2]: 535 nm | Extinction Coefficient [2]: 56,500 cm^−1M^−1 | Stokes Shift [2]: 101 nm | Quantum yield [2]: 2.4%

Structure (SMILES): COc1cc(/C=C/C2=CC(/C=C/c3ccc(OC(=O)c4c(F)cc(F)cc4F)c(OC)c3)=[O+][B-](F)(F)O2)ccc1OC(=O)c1c(F)cc(F)cc1F [6F-Cur-BF2]
Abs [2]: 430 nm | Em [2]: 512 nm | Extinction Coefficient [2]: 50,800 cm^−1M^−1 | Stokes Shift [2]: 82 nm | Quantum yield [2]: 3.0% | fold more rapid solvolysis than Cur-BF2 ([3]; 5.55 M H2O): 33 | fold slower solvolysis (more stable) than DK-1 ([3]; 5.55 M H2O): 1.6 | fluorescence in collected lymph node (histology) ([4]; mouse lymph node collected 2 hours post injection): observed in the lymph node | sentinel node visualization by fluorescence through the skin ([4]; mouse, 430 nm excitation, 520 nm emission filters, 2 hours post injection): the sentinel node is difficult to visualize through the skin

Structure (SMILES): COc1cc(/C=C/C2=CC(/C=C/c3ccc(O)c(OC)c3)=[O+][B-](F)(F)O2)ccc1O [Cur-BF2]
solubility in water [1]: insoluble | IC50 (HeLa; 24 h): 5.4 ± 0.4 µM | IC50 (HeLa; 48 h): 4.2 ± 0.2 µM | IC50 (HCT116; HCT116, 24 h): 3.31 ± 0.04 µM | IC50 (HCT116; HCT116, 48 h): 4.3 ± 0.2 µM | IC50 (A549; A549, 24 h): 27 ± 3 µM | IC50 (A549; A549, 48 h): 5.5 ± 0.3 µM | IC50 (MCF-7; MCF-7, 24 h): 10 ± 4 µM | IC50 (MCF-7; MCF-7, 48 h): 4.8 ± 0.2 µM | IC50 (MDA-MB-231; MDA-MB-231, 24 h): 11 ± 1 µM | IC50 (MDA-MB-231; MDA-MB-231, 48 h): 6 ± 1 µM | Abs [2]: 500 nm | Em [2]: 571 nm | Extinction Coefficient [2]: 73,000 cm^−1M^−1

Structure (SMILES): CC1(C)C(/C=C/C=C/C=C/C=C2\N(CCCCS(=O)(=O)O)c3ccc4ccccc4c3C2(C)C)=[N+](CCCCS(=O)(=O)[O-])c2ccc3ccccc3c21 [indocyanine green]
behaviour in sentinel node mapping (sentinel nodes): travel through sentinel nodes to delineate multiple non-sentinel nodes

Structure (SMILES): COc1cc(/C=C/C2=CC(/C=C/c3ccc(OC(=O)CCN4C(=O)C=CC4=O)c(OC)c3)=[O+][B-](F)(F)O2)ccc1OC(=O)CCN1C(=O)C=CC1=O [Cur-BF2-2Mal]
Abs [2]: 434 nm | Em [2]: 509 nm | Extinction Coefficient [2]: 54,000 cm^−1M^−1 | Stokes Shift [2]: 75 nm | Quantum yield [2]: 3.1% | fold more rapid solvolysis than Cur-BF2 ([3]; 5.55 M H2O): 24 | fold slower solvolysis (more stable) than DK-1 ([3]; 5.55 M H2O): 2.1

Further lines, results first:

solubility in water [1]: insoluble | Abs [2]: 408 nm | Em [2]: 438 nm | Extinction Coefficient [2]: 63,600 cm^−1M^−1 | Stokes Shift [2]: 30 nm | Quantum yield [2]: 65.8% | fold slower solvolysis (more stable) than DK-1 ([3]; 5.55 M H2O): 16 | fold slower solvolysis than DK-2 ([3]; 5.55 M H2O): 2.3
Structure (SMILES): COc1ccc(C2=CC(c3ccc(OC)cc3)=[O+][B-](F)(F)O2)cc1 [DK-17]

solubility in water [1]: water-soluble | Abs [2]: 303 nm | Em [2]: 307 nm | Extinction Coefficient [2]: 12,200 cm^−1M^−1 | Stokes Shift [2]: 4 nm | Fold increase in stability (90% → 10% H2O) [3]: 3.2 | times more resistant to solvolysis than DK-1 [3]: 6.2
Structure (SMILES): CC1=[O+][B-](F)(F)OC(C)=C1C [DK-2]

solubility in water [1]: insoluble | Abs [2]: 325 nm | Em [2]: 328 nm | Extinction Coefficient [2]: 19,800 cm^−1M^−1 | Stokes Shift [2]: 3 nm | fold more rapid solvolysis than DK-1 ([3]; 5.55 M H2O): 1.7
Structure (SMILES): CC1=CC(c2ccccc2)=[O+][B-](F)(F)O1 [DK-14]

solubility in water [1]: water-soluble | Abs [2]: 303 nm | Em [2]: 307 nm | Extinction Coefficient [2]: 12,000 cm^−1M^−1 | Stokes Shift [2]: 4 nm | Fold increase in stability (90% → 10% H2O) [3]: 5.0 | times more resistant to solvolysis than DK-1 [3]: 2.5
Structure (SMILES): CC1=C2CCCCC2=[O+][B-](F)(F)O1 [DK-15]

solubility in water [1]: insoluble | Abs [2]: 363 nm | Em [2]: 413 nm | Extinction Coefficient [2]: 38,000 cm^−1M^−1 | Stokes Shift [2]: 50 nm | Quantum yield [2]: 11.2% | fold slower solvolysis (more stable) than DK-1 ([3]; 5.55 M H2O): 1.4 | times more rapid solvolysis than DK-2 ([3]; 5.55 M H2O): 5.0
Structure (SMILES): F[B-]1(F)OC(c2ccccc2)=CC(c2ccccc2)=[O+]1 [DK-13]

solubility in water [1]: water-soluble | Abs [2]: 301 nm | Em [2]: 307 nm | Extinction Coefficient [2]: 12,600 cm^−1M^−1 | Stokes Shift [2]: 6 nm | Fold increase in stability (90% → 10% H2O) [3]: 4.7 | times more resistant to solvolysis than DK-1 [3]: 1.9
Structure (SMILES): CCOC(=O)CCC1=C(C)O[B-](F)(F)[O+]=C1C [DK-6]

solubility in water [1]: water-soluble | Abs [2]: 279 nm | Em [2]: 305 nm | Extinction Coefficient [2]: 9,180 cm^−1M^−1 | Stokes Shift [2]: 26 nm | Fold increase in stability (90% → 10% H2O) [3]: ~2.8 | solvolysis rate constant, k ([3]; 50 M H2O (90% water, 10% DMSO)): 0.254 ± 0.002 h⁻¹ | solvolysis in absence of water ([3]; 100% DMSO): not observed | fraction decomposed ([3]; […] (one fluoride-18 half-life), from rate constant at 50 M H2O): 37%
Structure (SMILES): CC1=CC(C)=[O+][B-](F)(F)O1 [DK-1]

solubility in water [1]: insoluble | Abs [2]: 400 nm | Em [2]: 439 nm | Extinction Coefficient [2]: 62,000 cm^−1M^−1 | Stokes Shift [2]: 39 nm | Quantum yield [2]: 67.3% | fold slower solvolysis (more stable) than DK-1 ([3]; 5.55 M H2O): 15 | fold slower solvolysis than DK-2 ([3]; 5.55 M H2O): 2.2
Structure (SMILES): COc1ccc(C2=CC(c3ccc(C(C)(C)C)cc3)=[O+][B-](F)(F)O2)cc1 [DK-16]

solubility in water [1]: water-soluble | Abs [2]: 303 nm | Em [2]: 306 nm | Extinction Coefficient [2]: 12,000 cm^−1M^−1 | Stokes Shift [2]: 3 nm | Fold increase in stability (90% → 10% H2O) [3]: 3.5 | times more resistant to solvolysis than DK-1 [3]: 5.6
Structure (SMILES): CCC1=C(C)O[B-](F)(F)[O+]=C1C [DK-3]
